System: COV434 cells
Assay: NAD cell assay (NAD cycling method)
Type: cell-based
Settings: cellular NAD level, 200 uM for 4 hr, normalised to protein, mole per mole comparison with NaR parent
Procedure: NAD levels were assayed based on the NAD cycling method of Zhu and Rand, PLoS One (2012), herein incorporated by reference. COV434 cells were maintained in 6 well plates and treated with the indicated compounds at a concentration of 200 uM for 4 hr. Media was removed, plates were washed in cold PBS and cells were scraped down in NAD extraction buffer containing 10 mM nicotinamide, 50 mM Tris HCl, 0.1% Triton X-100. Cells were homogenised by sonication for 5 seconds, and samples were centrifuged at 7,000 g for 5 min at 4 degrees. Aliquots were taken for later protein assay, and samples were then passed through 10 kDa amicon filters at 14,000 g, 30 min at 4 degrees to remove proteins from the sample. Each sample was measured in technical triplicate, with 25 μL sample added to 100 μL ADH cycling mix (0.2 mg/ml alcohol dehydrogenase enzyme, 2% ethanol, 100 mM Tris pH 8.5). Samples were allowed to cycle for 10 min at room temperature, followed by 50 μL addition of an MTT/PMS solution (0.1 mM phenazine methosulfate, 0.8 mM 3(4,5-Dimethylthiazol-2-yl)-2,5-diphenyltetrazolium bromide), 100 mM Tris-HCl pH 8.5). Plates were then incubated for 15 min and absorbance was measured at 570 nm. NAD concentrations were extrapolated from a standard curve, and normalised to protein concentrations determined by BCA protein assay.
The adjusted fold increase is obtained through a direct comparison on a mole per mole basis between the compared salt and its parent counterpart. In other words, the instant compounds derived from NaR parent molecule will only have their NAD activity level measured against NaR based on the same amount (mole) of salt tested in the cell. For example, the fold increase of compound I-002 is based on the NAD activity observed in a direct comparison for the same amount of mole in the cell and that of the NaR parent. Similarly, the fold increase of i-003 is based on the direct comparison with NaR.

## O=C([O-])c1ccc[n+]([C@@H]2O[C@H](CO)[C@@H](O)[C@H]2O)c1 [NaR, reference compound]
  Fold increase adjusted for MW (compared to parent molecule): 1.0 fold

## (2S,3S)-2-Ammonio-3-methylpentanoate compound with 1-((2R,3R,4S,5R)-3,4-dihydroxy-5-(hydroxymethyl)tetrahydrofuran-2-yl)pyridine-1-ium-3-carboxylate (1:1) [Compound I-002]
  Fold increase adjusted for MW (compared to parent molecule): 1.34 fold

## (S)-2-Ammonio-3-(1H-indol-3-yl)propanoate compound with 1-((2R,3R,4S,5R)-3,4-dihydroxy-5-(hydroxymethyl)tetrahydrofuran-2-yl)pyridine-1-ium-3-carboxylate (1:1) [Compound I-003]
  Fold increase adjusted for MW (compared to parent molecule): 1.76 fold

From patent publication US12661370B2, “Amino acid salts of nicotinic acid ribosides as anti-aging agents” (Jumpstart Fertility Pty Ltd, priority 2018, dated 2026)
